A word on the GI50: it is the concentration that inhibits growth by half. One may read the IC50 as the concentration needed to halve the response being measured.

The subject of one test is MCF7 breast cancer cells. Briefly: Cell proliferation assay (alamarBlue), MCF7. The class given is cell-based. Particulars: Homo sapiens, 72 h incubation, GI50 = half-maximal growth inhibition. The procedure: (§1) The effect of ATAD2 inhibitory compounds on cancer cell proliferation might be measured as below. For example; MCF7 breast cancer cells might be seeded into 96-well microtiter plates at 2000 cells/well in 90 μl cell culture media (RPMI 1640, 10% FCS, 2 mM L-Glutamine, 10 μg/ml human Insulin, […]) and incubated for 24 h at 37° C. and 5% CO2. Note, the culturing conditions might vary from cell line to cell line depending on their standard culturing conditions. Compounds might be then delivered to the microtiter assay plates and, following a 72 h long incubation period at 37° C. and 5% CO2, the viability of the cells might be measured with addition of alamarBlue® (Invitrogen) to the medium in Victor X3 Multilabel Plate Reader (Perkin Elmer).
(§2) GI50 means half-maximal growth inhibition.
Background: Resazurin is reduced to fluorescent resorufin, in cell work by metabolically active cells.

For test [1], the target named is T1, recombinant, N-terminally GST-tagged ATAD2 bromodomain amino acids 981-1108 (Homo sapiens, UniProt Q6PL18).
T1 construct: ATAD2 bromodomain amino acids 981-1108; made in house; host or cells: E. coli
T1 sequence (Q6PL18 981-1108): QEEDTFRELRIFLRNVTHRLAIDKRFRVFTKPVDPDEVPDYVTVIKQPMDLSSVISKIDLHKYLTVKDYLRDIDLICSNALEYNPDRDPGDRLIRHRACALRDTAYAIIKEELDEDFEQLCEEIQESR
Briefly: TR-FRET assay: disruption of the interaction between ATAD2 and acetylated Histone H4 (Ac-H4) peptide. The note with it: inhibition of ATAD2/Ac-H4 complex formation; 10 nM ATAD2, 50 nM Ac-H4 peptide. The class given is binding. Summed up:
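Read-out is the 665/622 nm TR-FRET ratio after 337 nm excitation, normalized to DMSO and no-protein controls, with IC50 fitted by 4-parameter logistic. Compounds (11 concentrations, 0.1 nM-20 μM) pre-equilibrated 10 min with 10 nM ATAD2, then 1 h at 22 °C with 50 nM Ac-H4 peptide.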
In general terms: In TR-FRET formats the signal depends on donor and acceptor labels being close together.

The subject of another test is NCl-H526 lung cancer. Briefly: Cell proliferation assay (alamarBlue), NCl-H526. The class given is cell-based. The note with it: GI50 = half-maximal growth inhibition. The procedure: as §1, §2

In the case of `COc1cc(Cl)c(C(=O)N[C@@H](CO)Cc2ccc(C#N)cc2)cc1-c1ccc(CN[C@H](C)c2ccc(C)cc2)o1` [Example 81, 2-chloro-N-[(2R)-1-(4-cyanophenyl)-3-hydroxypropan-2-yl]-4-methoxy-5-[5-({[(1R)-1-(4-methylphenyl)ethyl]amino}methyl)-2-furyl]benzamide], the GI50 in the test with MCF7 breast cancer cells amounted to 10400 nM; in the test on NCl-H526 lung cancer, 10200 nM. Also, in test [1], the IC50 came to 301 nM.

With `Cc1ccc([C@@H](C)NCc2ccc(-c3ccc(Cl)c(C(=O)N[C@@H](CN)Cc4ccc(C#N)cc4)c3)o2)cc1` [Example 53, N-[(2R)-1-amino-3-(4-cyanophenyl)propan-2-yl]-2-chloro-5-[5-({[(1R)-1-(4-methylphenyl)ethyl]amino}methyl)-2-furyl]benzamide], the GI50 in the test with MCF7 breast cancer cells worked out at 2510 nM; in the test with NCl-H526 lung cancer, 3600 nM. The IC50 in test [1] is 273 nM.

On to `Cc1ccc([C@@H](C)NCc2ccc(-c3ccc(Cl)c(C(=O)N[C@@H](CN[C@H]4CC[C@@H](N)CC4)Cc4ccc(C#N)cc4)c3)o2)cc1` (single isomer, unassigned) [Example 71], for which the concentration for 50% growth inhibition (GI50) in the test with MCF7 breast cancer cells worked out at 3180 nM; in the test with NCl-H526 lung cancer it was 1250 nM. The IC50 in test [1] came out at 107 nM.

As to `COc1cc(Cl)c(C(=O)N[C@@H](CN[C@H]2CC[C@@H](N)CC2)Cc2ccc(C#N)cc2)cc1-c1ccc(CN[C@H](C)c2ccc(C)cc2)o1` [Example 86, N-[(2R)-1-[(4-aminocyclohexyl)amino]-3-(4-cyanophenyl)propan-2-yl]-2-chloro-4-methoxy-5-[5-({[(1R)-1-(4-methylphenyl)ethyl]amino}methyl)-2-furyl]benzamide], the concentration for 50% growth inhibition (GI50) in the test with MCF7 breast cancer cells was 3200 nM; in the test on NCl-H526 lung cancer it was 2400 nM. Moreover, the IC50 in test [1] worked out at 166 nM.

`Cc1ccc([C@@H](C)NCc2ccc(-c3ccc(Cl)c(C(=O)N[C@@H](CCNCC4CCN(C)CC4)Cc4ccc(C#N)cc4)c3)o2)cc1` [Example 33, 2-chloro-N-[(2R)-1-(4-cyanophenyl)-4-{[(1-methylpiperidin-4-yl)methyl]amino}butan-2-yl]-5-[5-({[(1R)-1-(4-methylphenyl)ethyl]amino}methyl)-2-furyl]benzamide]: the GI50 in the test on MCF7 breast cancer cells came out at 1420 nM; in the test on NCl-H526 lung cancer, 1250 nM. Further, the IC50 in test [1] came to 184 nM.

With `Cc1ccc([C@@H](C)NCc2ccc(-c3ccc(Cl)c(C(=O)N[C@@H](C)Cc4ccc(C#N)cc4)c3)o2)cc1` [Example 42, 2-chloro-N-[(2S)-1-(4-cyanophenyl)propan-2-yl]-5-[5-({[(1R)-1-(4-methylphenyl)ethyl]amino}methyl)-2-furyl]benzamide], the 50% growth inhibitory concentration (GI50) with MCF7 breast cancer cells is 11900 nM; in the test on NCl-H526 lung cancer, > 30000 nM. In addition, in test [1], the IC50 was 1100 nM.

Source of the values: patent US10654818B2, “Furane derivatives as inhibitors of ATAD2” (BAYER PHARMA AKTIENGESELLSCHAFT, priority 2015, dated 2020).
